According to patent EP1397353B1, “2-(2,6-DISUBSTITUTED PHENYL)-4-ARYL-5-ALKYL-1,3-OXAZOLINE COMPOUNDS USEFUL AS INSECTICIDES AND ACARICIDES” (Dow AgroSciences LLC, priority 2001, dated 2003):

Legend:
Assay type in all cases: in vivo
[1] = test system: tobacco budworm (Heliothis virescens); assay: Insecticidal test for tobacco budworm (leaf-dip, cotton cotyledon discs); details: dipped cotton cotyledon discs, 2nd instar larvae, 5 days, rating of % Control; for pest or weed control at 400 ppm: Heliothis virescens, 120 h, read-out: TBW, activity at 400 ppm against tobacco budworm
Description: (§1) Insecticidal test for tobacco budworm (Heliothis virescens), beet armyworm (Spodoptera exigua), and cabbage looper (Trichoplusia ni).
(§2) To prepare test solution, the test compound was formulated at 400 ppm in 7.5 mL of 2 acetone: 1 tap water. 250 µL of the test solution was pipetted upon the surface of 8 mL of lepidopteran diet (modified Shorey) contained in each of five one-ounce plastic cups (one cup = 1 replication). […] After airdrying, the treated leaf discs were placed individually into one-ounce plastic cups. Each dried, treated cotton cotyledon disc was infested with a 2nd instar tobacco budworm larva, and each cabbage leaf disc was infested with a 2nd instar cabbage looper larva. Cups containing the treated substrates and larvae were capped and then held in a growth chamber at 25 °C, 50-55% RH, and 14 hr light: 10 hr dark for 5 days.

[2] = test system: beet armyworm (Spodoptera exigua); assay: Insecticidal test for beet armyworm (treated lepidopteran diet); details: 2nd instar larvae, 5 days, rating of % Control; for pest or weed control at 400 ppm: Spodoptera exigua, 120 h, read-out: BAW, activity at 400 ppm against beet armyworm
Description: as §1, §2

[3] = test system: cabbage looper (Trichoplusia ni); assay: Insecticidal test for cabbage looper (leaf-dip, cabbage leaf discs); details: dipped cabbage leaf discs, 2nd instar larvae, 5 days, rating of % Control; for pest or weed control at 400 ppm: Trichoplusia ni, foliar, 120 h, read-out: CL, activity at 400 ppm against cabbage looper
Description: as §1, §2

[4] = test system: two-spotted spider mite (Tetranychus urticae); assay: Insecticidal test for two-spotted spider mite, ovicide method; details: for pest or weed control: Tetranychus urticae, read-out: SM, activity against two-spotted spider mite
Description: Insecticidal test for two-spotted spider mite (Tetranychus urticae)
Ten adult female two-spotted spider mites were placed on eight 2.2 cm leaf discs of cotton leaf, allowed to oviposit over 24 hours, and thereafter removed. […] Discs were placed on an agar substrate and held at 24 °C and 90% RH for 6 days.

[5] = foliar, 144 h, ovicide method, cotton leaf discs, 6 days, rating of % Control

Row | Molecule | pest or weed control at 400 ppm [1] | pest or weed control at 400 ppm [2] | pest or weed control at 400 ppm [3] | further results
1 | Cc1ccc(-c2ccc([C@@H]3N=C(c4c(F)cccc4F)O[C@@H]3C)cc2)cc1 (mixture of isomers) [Compound 9, (4S,5R)- and (4R,5S)-2-(2,6-difluorophenyl)-5-methyl-4-(4'-methyl-1,1'-biphenyl-4-yl)-4,5-dihydro-1,3-oxazole] | < 50% | 90 to 100% | 90 to 100% | –
2 | C[C@H]1OC(c2c(F)cccc2F)=N[C@H]1c1ccc(-c2ccc(Cl)cc2)cc1 (mixture of isomers) [Compound 10, (4S,5R)- and (4R,5S)-4-(4'-chloro-1,1'-biphenyl-4-yl)-2-(2,6-difluorophenyl)-5-methyl-4,5-dihydro-1,3-oxazole] | 90 to 100% | 90 to 100% | 90 to 100% | –
3 | C[C@H]1OC(c2c(F)cccc2F)=N[C@H]1c1ccc(-c2cccc(C(F)(F)F)c2)cc1 (mixture of isomers) [Compound 11, (4S,5R)- and (4R,5S)-2-(2,6-difluorophenyl)-5-methyl-4-[3'-(trifluoromethyl)-1,1'-biphenyl-4-yl]-4,5-dihydro-1,3-oxazole] | 80 to 89% | 90 to 100% | 90 to 100% | –
4 | C[C@@H]1OC(c2c(F)cccc2F)=N[C@@H]1c1ccc(-c2ccc3c(c2)OC(F)(F)O3)cc1 (mixture of isomers) [Compound 13, (4R,5S)- and (4S,5R)-4-[4-(2,2-difluoro-1,3-benzodioxol-5-yl)phenyl]-2-(2,6-difluorophenyl)-5-methyl-4,5-dihydro-1,3-oxazole] | < 50% | – | 90 to 100% | –
5 | C[C@@H]1OC(c2c(F)cccc2F)=N[C@@H]1c1ccc(-c2ccc(C(F)(F)F)cc2F)cc1 (mixture of isomers) [Compound 16, (4R,5S)- and (4S,5R)-2-(2,6-difluorophenyl)-4-[2'-fluoro-4'-(trifluoromethyl)-1,1'-biphenyl-4-yl]-5-methyl-4,5-dihydro-1,3-oxazole] | 90 to 100% | 90 to 100% | 90 to 100% | –
6 | C[C@@H]1OC(c2c(F)cccc2F)=N[C@H]1c1ccc(-c2ccc(F)cc2)cc1 (mixture of isomers) [Compound 25, (4S,5S)- and (4R,5R)-2-(2,6-difluorophenyl)-4-(4'-fluoro-1,1'-biphenyl-4-yl)-5-methyl-4,5-dihydro-1,3-oxazole] | 90 to 100% | 90 to 100% | 90 to 100% | pest or weed control [4, 5]: 90 to 100%
7 | C[C@@H]1OC(c2c(F)cccc2F)=N[C@H]1c1ccc(-c2ccc(C(F)(F)F)cc2)cc1 (mixture of isomers) [Compound 26, (4S,5S)- and (4R,5R)-2-(2,6-difluorophenyl)-5-methyl-4-[4'-(trifluoromethyl)-1,1'-biphenyl-4-yl]-4,5-dihydro-1,3-oxazole] | 90 to 100% | 90 to 100% | 90 to 100% | pest or weed control [4, 5]: 90 to 100%
8 | C[C@@H]1OC(c2c(F)cccc2F)=N[C@H]1c1ccc(-c2cccc(C(F)(F)F)c2)cc1 (mixture of isomers) [Compound 28, (4S,5S)- and (4R,5R)-2-(2,6-difluorophenyl)-5-methyl-4-[3'-(trifluoromethyl)-1,1'-biphenyl-4-yl]-4,5-dihydro-1,3-oxazole] | 90 to 100% | 90 to 100% | 90 to 100% | pest or weed control [4, 5]: 90 to 100%
9 | Cc1ccc(-c2ccc([C@@H]3N=C(c4c(F)cccc4F)O[C@H]3C)cc2)cc1C (mixture of isomers) [Compound 29, (4S,5S)- and (4R,5R)-2-(2,6-difluorophenyl)-4-(3',4'-dimethyl-1,1'-biphenyl-4-yl)-5-methyl-4,5-dihydro-1,3-oxazole] | < 50% | 60 to 69% | 90 to 100% | –
10 | C[C@@H]1OC(c2c(F)cccc2F)=N[C@H]1c1ccc(-c2ccccc2F)cc1 (mixture of isomers) [Compound 31, (4S,5S)- and (4R,5R)-2-(2,6-difluorophenyl)-4-(2'-fluoro-1,1'-biphenyl-4-yl)-5-methyl-4,5-dihydro-1,3-oxazole] | < 50% | < 50% | 90 to 100% | pest or weed control [4, 5]: 90 to 100%
11 | CCOc1ccc(-c2ccc([C@@H]3N=C(c4c(F)cccc4F)O[C@H]3C)cc2)cc1 (mixture of isomers) [Compound 33, (4S,5S)- and (4R,5R)-2-(2,6-difluorophenyl)-4-(4'-ethoxy-1,1'-biphenyl-4-yl)-5-methyl-4,5-dihydro-1,3-oxazole] | 80 to 89% | 90 to 100% | 90 to 100% | pest or weed control [4, 5]: 80 to 89%
12 | C[C@@H]1OC(c2c(F)cccc2F)=N[C@H]1c1ccc(-c2ccc3c(c2)OC(F)(F)O3)cc1 (mixture of isomers) [Compound 34, (4S,5S)- and (4R,5R)-4-[4-(2,2-difluoro-1,3-benzodioxol-5-yl)phenyl]-2-(2,6-difluorophenyl)-5-methyl-4,5-dihydro-1,3-oxazole] | < 50% | – | 90 to 100% | –
13 | Cc1ccc(-c2ccc([C@@H]3N=C(c4c(F)cccc4F)O[C@H]3C)cc2)cc1 (mixture of isomers) [Compound 36, (4S,5S)- and (4R,5R)-2-(2,6-difluorophenyl)-5-methyl-4-(4'-methyl-1,1'-biphenyl-4-yl)-4,5-dihydro-1,3-oxazole] | < 50% | < 50% | 90 to 100% | –
14 | C[C@@H]1OC(c2c(F)cccc2F)=N[C@H]1c1ccc(-c2ccc(Cl)cc2)cc1 (mixture of isomers) [Compound 37, (4S,5S)- and (4R,5R)-4-(4'-chloro-1,1'-biphenyl-4-yl)-2-(2,6-difluorophenyl)-5-methyl-4,5-dihydro-1,3-oxazole] | 90 to 100% | 90 to 100% | 90 to 100% | –
15 | Cc1cc(Br)ccc1[C@@H]1N=C(c2c(F)cccc2F)O[C@H]1C (mixture of isomers) [Compound 42, (4S,5S)- and (4R,5R)-4-(4-bromo-2-methylphenyl)-2-(2,6-difluorophenyl)-5-methyl-4,5dihydro-1,3-oxazole] | < 50% | – | – | –
16 | C[C@@H]1OC(c2c(F)cccc2F)=N[C@@H]1c1ccc(-c2ccc(C(F)(F)F)cc2)cc1 (racemic) [Compound 5, (4R,5S)- and 4S,5R)-2-(2,6-difluorophenyl)-5-methyl-4-(4'-(trifluoromethyl)-1,1'-biphenyl-4-yl]-4,5-dihvdro-1,3-oxazole] | – | – | – | SM, activity at 2.5 ppm against two-spotted spider mite ([4]; foliar, 144 h): A (90-100); BAW, activity at 400 ppm against beet armyworm [2]: A (90-100); CL, activity at 400 ppm against cabbage looper [3]: A (90-100)
17 | CCOc1ccc(-c2ccc([C@H]3N=C(c4c(F)cccc4F)O[C@H]3C)cc2)cc1 (racemic) [Compound 12, (4R,5S)- and (4S,5R)-2-(2,6-difluorophenyl)-4-(4'-ethoxy-1,1'-bphenyl-4-yl)-5-methyl-4,5-dihydro-1,3-oxazole] | – | – | – | TBW, activity at 400 ppm against tobacco budworm [1]: B (80-89); BAW, activity at 400 ppm against beet armyworm [2]: A (90-100); CL, activity at 400 ppm against cabbage looper [3]: A (90-100)
18 | C[C@@H]1OC(c2c(F)cccc2F)=N[C@@H]1c1ccc(-c2ccccc2F)cc1 (racemic) [Compound 15, (4R,5S)- and (4S,5R)-2-(2,6-difluorophenyl)-4-2'-fluoro-1,1'-biphenyl-4-yl)-5-methyl-4,5-dihydro-1,3-oxazole] | – | – | – | CL, activity at 400 ppm against cabbage looper [3]: A (90-100)
19 | C[C@@H]1OC(c2c(F)cccc2F)=N[C@H]1c1ccc(-c2ccc(OC(F)(F)F)cc2)cc1 [Compound 47] | – | – | – | SM, activity at 2.5 ppm against two-spotted spider mite ([4]; foliar, 144 h): A (90-100); BAW, activity at 400 ppm against beet armyworm [2]: A (90-100); CL, activity at 400 ppm against cabbage looper [3]: A (90-100)
20 | (4R,5R)- and (4S,5S)-4-(4-bromophenyl)-2-(2-chloro-6-fluorophenyl)-5-methyl-4,5-dihydro-1,3-oxazole [Compound 23] | – | – | – | SM, activity at 2.5 ppm against two-spotted spider mite ([4]; ovicide method, cotton leaf discs, 6 days, rating of % Control): A (90-100); TBW, activity at 400 ppm against tobacco budworm [1]: B (80-89); CL, activity at 400 ppm against cabbage looper [3]: F (less than 50)
21 | (4R,5R)- and (4S,5S)-4-phenyl-2-(2,6-difluorophenyl)-5-methyl-4,5-dihydro-1,3-oxazole [Compound 35] | – | – | – | TBW, activity at 400 ppm against tobacco budworm [1]: F (less than 50); CL, activity at 400 ppm against cabbage looper [3]: F (less than 50)
